ChEMBL document CHEMBL1201862, “PubChem BioAssay data set” (2004)
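Compound exposure: 48 hours, 5 concentrations, 96-well plates. GI50 is the concentration that inhibits growth by half.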 Calls of active or inactive are those of the source. Cut-off read from the data, not from the text of the source: active = GI50 up to about 1.1 µM and inactive = higher.

What was measured:
Test in all cases: NCI-60 cell line screen, 48 h
[1] = test system: 786-0
[2] = test system: A498
[3] = test system: A549
[4] = test system: ACHN
[5] = test system: BT-549
[6] = test system: CAKI-1
[7] = test system: CCRF-CEM
[8] = test system: COLO 205
[9] = test system: DU-145
[10] = test system: EKVX
[11] = test system: HCC 2998
[12] = test system: HCT-116
[13] = test system: HCT-15
[14] = test system: HL-60
[15] = test system: HOP-62
[16] = test system: HOP-92
[17] = test system: HT-29
[18] = test system: Hs-578T
[19] = test system: IGROV-1
[20] = test system: K562
[21] = test system: KM12
[22] = test system: LOX IMVI
[23] = test system: M14
[24] = test system: MCF7
[25] = test system: MDA-MB-231
[26] = test system: MDA-MB-435
[27] = test system: MDA-N
[28] = test system: MOLT-4
[29] = test system: Malme-3M
[30] = test system: NCI-H226
[31] = test system: NCI-H23
[32] = test system: NCI-H460
[33] = test system: NCI-H522
[34] = test system: NCI/ADR-RES
[35] = test system: OVCAR-3
[36] = test system: OVCAR-4
[37] = test system: OVCAR-5
[38] = test system: OVCAR-8
[39] = test system: PC-3
[40] = test system: RPMI-8226
[41] = test system: RXF 393
[42] = test system: SF-268
[43] = test system: SF-295
[44] = test system: SF-539
[45] = test system: SK-MEL-28
[46] = test system: SK-MEL-2
[47] = test system: SK-MEL-5
[48] = test system: SK-OV-3
[49] = test system: SN12C
[50] = test system: SNB-19
[51] = test system: SNB-75
[52] = test system: SR
[53] = test system: SW-620
[54] = test system: T47D
[55] = test system: TK-10
[56] = test system: U-251
[57] = test system: UACC-257
[58] = test system: UACC-62
[59] = test system: UO-31

## CNC(=O)N(CCC#N)CCN(C(=O)N(C)C)c1ccccc1
[1]
  GI50: > 100 µM (inactive)
[2]
  GI50: > 100 µM (inactive)
[3]
  GI50: > 100 µM (inactive)
[4]
  GI50: > 100 µM (inactive)
[5]
  GI50: > 100 µM (inactive)
[6]
  GI50: > 100 µM (inactive)
[7]
  GI50: > 100 µM (inactive)
[8]
  GI50: > 100 µM (inactive)
[9]
  GI50: > 100 µM (inactive)
[10]
  GI50: > 100 µM (inactive)
[11]
  GI50: > 100 µM (inactive)
[12]
  GI50: > 100 µM (inactive)
[13]
  GI50: > 100 µM
[14]
  GI50: > 100 µM (inactive)
[15]
  GI50: > 100 µM (inactive)
[16]
  GI50: > 100 µM (inactive)
[17]
  GI50: > 100 µM (inactive)
[18]
  GI50: > 100 µM (inactive)
[19]
  GI50: > 100 µM (inactive)
[20]
  GI50: > 100 µM (inactive)
[21]
  GI50: > 100 µM (inactive)
[22]
  GI50: > 100 µM (inactive)
[23]
  GI50: > 100 µM (inactive)
[24]
  GI50: > 100 µM (inactive)
[25]
  GI50: > 100 µM (inactive)
[26]
  GI50: > 100 µM (inactive)
[27]
  GI50: > 100 µM (inactive)
[28]
  GI50: > 100 µM (inactive)
[29]
  GI50: > 100 µM (inactive)
[30]
  GI50: > 100 µM (inactive)
[31]
  GI50: > 100 µM (inactive)
[32]
  GI50: > 100 µM (inactive)
[33]
  GI50: > 100 µM (inactive)
[34]
  GI50: > 100 µM (inactive)
[35]
  GI50: > 100 µM (inactive)
[36]
  GI50: > 100 µM (inactive)
[37]
  GI50: > 100 µM (inactive)
[38]
  GI50: > 100 µM (inactive)
[39]
  GI50: > 100 µM (inactive)
[40]
  GI50: > 100 µM (inactive)
[41]
  GI50: > 100 µM (inactive)
[42]
  GI50: > 100 µM (inactive)
[43]
  GI50: > 100 µM (inactive)
[44]
  GI50: > 100 µM (inactive)
[45]
  GI50: > 100 µM (inactive)
[46]
  GI50: > 100 µM (inactive)
[47]
  GI50: > 100 µM (inactive)
[48]
  GI50: > 100 µM (inactive)
[49]
  GI50: > 100 µM (inactive)
[50]
  GI50: > 100 µM (inactive)
[51]
  GI50: > 100 µM (inactive)
[52]
  GI50: > 100 µM (inactive)
[53]
  GI50: > 100 µM (inactive)
[54]
  GI50: > 100 µM (inactive)
[55]
  GI50: > 100 µM (inactive)
[56]
  GI50: > 100 µM (inactive)
[57]
  GI50: > 100 µM (inactive)
[58]
  GI50: > 100 µM (inactive)
[59]
  GI50: > 100 µM (inactive)

## O=S(=O)(O)c1c(Cl)c(Cl)c(O)c2ncccc12
[1]
  GI50: 8.02 µM (inactive)
[2]
  GI50: 1 µM (active)
[3]
  GI50: 12.4 µM (inactive)
[4]
  GI50: 7.33 µM (inactive)
[5]
  GI50: 20.2 µM (inactive)
[6]
  GI50: 18.6 µM (inactive)
[7]
  GI50: 4.01 µM (inactive)
[8]
  GI50: 9.95 µM (inactive)
[9]
  GI50: 16.6 µM (inactive)
[10]
  GI50: 12.2 µM (inactive)
[11]
  GI50: 13.5 µM (inactive)
[12]
  GI50: 5.56 µM (inactive)
[13]
  GI50: 5.33 µM
[14]
  GI50: 1.87 µM (inactive)
[15]
  GI50: 5 µM (inactive)
[16]
  GI50: 18.8 µM (inactive)
[17]
  GI50: 9.89 µM (inactive)
[18]
  GI50: 20.2 µM (inactive)
[19]
  GI50: 4.2 µM (inactive)
[20]
  GI50: 7.57 µM (inactive)
[21]
  GI50: 10.8 µM (inactive)
[22]
  GI50: 2.19 µM (inactive)
[23]
  GI50: 12 µM (inactive)
[24]
  GI50: 5.04 µM (inactive)
[25]
  GI50: 27.7 µM (inactive)
[26]
  GI50: 9.4 µM (inactive)
[27]
  GI50: 14.6 µM (inactive)
[28]
  GI50: 3.33 µM (inactive)
[29]
  GI50: 10.4 µM (inactive)
[30]
  GI50: 20.9 µM (inactive)
[31]
  GI50: 11.2 µM (inactive)
[32]
  GI50: 7.36 µM (inactive)
[33]
  GI50: 4.12 µM (inactive)
[34]
  GI50: 5.05 µM (inactive)
[35]
  GI50: 10.7 µM (inactive)
[36]
  GI50: 8.99 µM (inactive)
[37]
  GI50: 16.7 µM (inactive)
[38]
  GI50: 10.3 µM (inactive)
[39]
  GI50: 10.8 µM (inactive)
[40]
  GI50: 10.6 µM (inactive)
[41]
  GI50: 19.3 µM (inactive)
[42]
  GI50: 3.79 µM (inactive)
[43]
  GI50: 7.06 µM (inactive)
[44]
  GI50: 16 µM (inactive)
[45]
  GI50: 13 µM (inactive)
[46]
  GI50: 12.5 µM (inactive)
[47]
  GI50: 9.68 µM (inactive)
[48]
  GI50: 13 µM (inactive)
[49]
  GI50: 14 µM (inactive)
[50]
  GI50: 11.8 µM (inactive)
[51]
  GI50: 14.3 µM (inactive)
[52]
  GI50: 6.3 µM (inactive)
[53]
  GI50: 10 µM (inactive)
[54]
  GI50: 7.08 µM (inactive)
[55]
  GI50: 12.5 µM (inactive)
[56]
  GI50: 10.8 µM (inactive)
[57]
  GI50: 14.9 µM (inactive)
[58]
  GI50: 8.34 µM (inactive)
[59]
  GI50: 7.08 µM (inactive)

## Nc1n[c-](N)[n+](=O)c(N)c1NCO
[1]
  GI50: > 100 µM (inactive)
[2]
  GI50: > 100 µM (inactive)
[3]
  GI50: > 100 µM (inactive)
[4]
  GI50: > 100 µM (inactive)
[5]
  GI50: > 100 µM (inactive)
[6]
  GI50: > 100 µM (inactive)
[7]
  GI50: > 100 µM (inactive)
[8]
  GI50: > 100 µM (inactive)
[9]
  GI50: > 100 µM (inactive)
[10]
  GI50: > 100 µM (inactive)
[11]
  GI50: > 100 µM (inactive)
[12]
  GI50: > 100 µM (inactive)
[13]
  GI50: > 100 µM
[14]
  GI50: > 100 µM (inactive)
[15]
  GI50: > 100 µM (inactive)
[16]
  GI50: > 100 µM (inactive)
[17]
  GI50: > 100 µM (inactive)
[18]
  GI50: > 100 µM (inactive)
[19]
  GI50: > 100 µM (inactive)
[20]
  GI50: > 100 µM (inactive)
[21]
  GI50: > 100 µM (inactive)
[22]
  GI50: > 100 µM (inactive)
[23]
  GI50: > 100 µM (inactive)
[24]
  GI50: > 100 µM (inactive)
[25]
  GI50: > 100 µM (inactive)
[26]
  GI50: > 100 µM (inactive)
[27]
  GI50: > 100 µM (inactive)
[28]
  GI50: > 100 µM (inactive)
[29]
  GI50: > 100 µM (inactive)
[30]
  GI50: > 100 µM (inactive)
[31]
  GI50: > 100 µM (inactive)
[32]
  GI50: > 100 µM (inactive)
[33]
  GI50: > 100 µM (inactive)
[34]
  GI50: > 100 µM (inactive)
[35]
  GI50: > 100 µM (inactive)
[36]
  GI50: > 100 µM (inactive)
[37]
  GI50: > 100 µM (inactive)
[38]
  GI50: > 100 µM (inactive)
[39]
  GI50: > 100 µM (inactive)
[40]
  GI50: > 100 µM (inactive)
[41]
  GI50: > 100 µM (inactive)
[42]
  GI50: > 100 µM (inactive)
[43]
  GI50: > 100 µM (inactive)
[44]
  GI50: > 100 µM (inactive)
[45]
  GI50: > 100 µM (inactive)
[46]
  GI50: > 100 µM (inactive)
[47]
  GI50: > 100 µM (inactive)
[48]
  GI50: > 100 µM (inactive)
[49]
  GI50: > 100 µM (inactive)
[50]
  GI50: > 100 µM (inactive)
[51]
  GI50: > 100 µM (inactive)
[52]
  GI50: > 100 µM (inactive)
[53]
  GI50: > 100 µM (inactive)
[54]
  GI50: > 100 µM (inactive)
[55]
  GI50: > 100 µM (inactive)
[56]
  GI50: > 100 µM (inactive)
[57]
  GI50: > 100 µM (inactive)
[58]
  GI50: > 100 µM (inactive)
[59]
  GI50: > 100 µM (inactive)
